In US8524911B2, “3-arylamino pyridine derivatives” (Merck Serono SA, priority 2004, dated 2013):

Biological target: human MEK1 (Homo sapiens, UniProt Q02750)
Test: MEK-1 Enzyme Assay (LANCE-HTRF)
Assay type: biochemical
Conditions: 100 nM MEK1, 15 μM ATP, 300 nM ERK2, two hours; read-out: MEK inhibition
Method: Assay 1: MEK-1 Enzyme Assay (LANCE-HTRF)
The activity of the compounds of the present invitation may be determined by the following procedure; Inhibition of human MEK1 kinase activity was monitored with a homogenous, fluorescence based assay. The assay uses time resolved fluorescence resonance energy transfer to probe for phosphorylation of ERK1 by MEK1. The assay is carried out in low volume 96 well microtiterplates. […] After two hours, 5 nM Europium-anti-PY20 (Perkin Elmer) and 50 nM Anti-GST-Allophycocyanin (CisBio) in buffer containing 50 mM EDTA and 0.05% BSA are added and the reaction incubated for one hour in the dark. Time-resolved fluorescence is measured using a LJL-Analyst (Molecular Devices) with an excitation wavelength of 340 nm and an emission wavelength of 665 nm. The final concentration of DMSO is 2%.

human MEK1, sequence (Q02750 whole entry): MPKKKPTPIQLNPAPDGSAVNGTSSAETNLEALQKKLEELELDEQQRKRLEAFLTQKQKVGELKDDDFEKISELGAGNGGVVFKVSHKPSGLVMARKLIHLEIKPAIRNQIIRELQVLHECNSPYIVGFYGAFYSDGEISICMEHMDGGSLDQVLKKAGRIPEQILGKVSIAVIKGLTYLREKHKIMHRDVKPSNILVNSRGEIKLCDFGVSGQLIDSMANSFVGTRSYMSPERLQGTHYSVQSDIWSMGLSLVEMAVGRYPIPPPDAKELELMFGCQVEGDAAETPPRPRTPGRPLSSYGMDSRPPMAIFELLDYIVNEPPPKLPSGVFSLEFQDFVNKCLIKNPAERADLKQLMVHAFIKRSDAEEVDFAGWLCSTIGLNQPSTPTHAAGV

SMILES | IC50 [nM]
O=C(O)c1ccncc1Nc1ccc(Cl)cc1Cl [Example 1, 3-[(2,4-Dichlorophenyl)amino]isonicotinic acid] | < 1000
Cc1cc(Br)ccc1Nc1cnccc1C(=O)O [Example 2, 3-[(4-Bromo-2-methylphenyl)amino]isonicotinic acid] | < 1000
Cc1cc(I)ccc1Nc1cnccc1C(=O)O [Example 3, 3-[(4-Iodo-2-methylphenyl)amino]isonicotinic acid] | < 1000
CCONC(=O)c1cc[n+]([O-])cc1Nc1ccc(Br)cc1C [Example 6, 3-[(4-Bromo-2-methylphenyl)amino]-N-ethoxyisonicotinamide 1-oxide] | 1000 to 10000
COc1ccc(-c2cc(C(=O)O)c(Nc3ccc(I)cc3F)cn2)cc1 [Example 52, 5-[(2-fluoro-4-iodophenyl)amino]-2-(4-methoxyphenyl)isonicotinic acid] | 1000 to 10000
CN(C)c1ccc(-c2cc(C(=O)O)c(Nc3ccc(I)cc3F)cn2)cc1 [Example 57, 2-[4-(dimethylamino)phenyl]-5-[(2-fluoro-4-iodophenyl)amino]-isonicotinic acid] | 1000 to 10000
O=C(NC1CCc2ccccc21)c1ccncc1Nc1ccc(I)cc1F (stereo not shown) [Example 59, N-(2,3-dihydro-1H-inden-1-yl)-3-[(2-fluoro-4-iodophenyl)amino]-isonicotinamide] | 1000 to 10000
O=C(O)c1ccncc1Nc1ccc(I)cc1 [Example 73, 3-(4-iodo-phenylamino)-isonicotinic acid] | < 1000
COc1cccc(NC(=O)c2ccncc2Nc2ccc(I)cc2F)c1 [Example 104, 3-[(2-fluoro-4-iodophenyl)amino]-N-(3-methoxyphenyl)-isonicotinamide] | < 1000
O=C(NCc1cc(F)cc(C(F)(F)F)c1)c1ccncc1Nc1ccc(I)cc1F [Example 105, 3-[(2-fluoro-4-iodophenyl)amino]-N-[3-fluoro-5-(trifluoromethyl)-benzyl]isonicotinamide] | < 1000
CCOC(CCCNC(=O)c1ccncc1Nc1ccc(I)cc1F)OCC [Example 107, N-(4,4-diethoxybutyl)-3-[(2-fluoro-4-iodophenyl)amino]-isonicotinamide] | < 1000
O=C(NCc1ccc(F)cc1)c1ccncc1Nc1ccc(I)cc1F [Example 108, N-(4-Fluoro-benzyl)-3-(2-fluoro-4-iodo-phenylamino)-iso-nicotinamide] | < 1000

Now from value to molecule:

IC50 [nM] | SMILES
< 1000 | O=C(N[C@H]1CCCC[C@@H]1O)c1ccncc1Nc1ccc(I)cc1F (relative stereo) [Example 113, 3-(2-Fluoro-4-iodo-phenylamino)-N-(trans-2-hydroxy-cyclohexyl)-isonicotinamide]
< 1000 | CN(CCO)C(=O)c1ccncc1Nc1ccc(I)cc1F [Example 37]
1000 to 10000 | CC1(C)OC[C@H](CONC(=O)c2ccnc(Cl)c2Nc2ccc(I)cc2F)O1 [Example 38, 2-Chloro-N-{[(4R)-2,2-dimethyl-1,3-dioxolan-4-yl]methoxy}-3-(2-fluoro-4-iodo-phenylamino)-isonicotinamide]
1000 to 10000 | CC1(C)OC[C@H](CONC(=O)c2cc[n+]([O-])cc2Nc2ccc(I)cc2F)O1 [Example 89, N-(2,2-Dimethyl-[1,3]dioxolan-4-ylmethoxy)-3-(2-fluoro-4-iodo-phenylamino)-1-oxy-isonicotinamide]
< 1000 | Cc1nccc(C(=O)O)c1Nc1ccc(I)cc1F [Example 95, 3-(2-Fluoro-4-iodo-phenylamino)-2-methyl-isonicotinic acid]
< 1000 | O=C(NOCc1c(F)c(F)c(F)c(F)c1F)c1ccncc1Nc1ccc(I)cc1F [Example 103, 3-[(2-fluoro-4-iodophenyl)amino]-N-[(pentafluorobenzyl)oxy]-isonicotinamide]
< 1000 | O=C(NCc1cccc(O)c1)c1ccncc1Nc1ccc(I)cc1F [Example 106, 3-[(2-fluoro-4-iodophenyl)amino]-N-(3-hydroxybenzyl)-isonicotinamide]
